Assay results from ChEMBL document CHEMBL3217433, “Identification of pyrazolo-pyrimidinones as GHS-R1a antagonists and inverse agonists for the treatment of obesity” (Medchemcomm, 2013).
Values after ≈ are worked out from the molar mass of the structure shown.

Columns and labels:
[1] = Lipophilicity, log D of the compound by HPLC analysis; type: physicochemical
[2] = Octanol-buffer partition coefficient, log D of the compound at pH 7.4 after 30 mins by shake-flask method; type: physicochemical
[3] = Aqueous solubility of the compound in phosphate buffer at pH 7.4 after 24 hrs by LC-UV analysis; type: physicochemical
[4] = Dissociation constant, pKa of the compound; type: physicochemical
[5] = Plasma concentration in mouse at 20 mg/kg, po measured at 1 hr; type: ADME, organism-based; set-up: dose 20 mg/kg, route oral
[6] = Drug uptake in mouse brain at 20 mg/kg, po measured at 1 hr; type: ADME, organism-based; set-up: dose 20 mg/kg, route oral; conditions: read-out: Drug uptake
[7] = Intrinsic clearance in human liver microsomes; type: ADME; conditions: read-out: CLH

logD at 0.5 h [2]	pKa [4]	microsomal CLint [7]	Structure (SMILES)	also measured
> 4.3	8.5		COCCN1CCC[C@@H](Cn2c(-c3ccccc3C)nc3cc(-c4ccc(Cl)cc4)sc3c2=O)C1	logD [1]: 5.6
3.5	9.2		COCCN1CCC[C@@H](Cn2c(-c3ccccc3C)nc3nc(-c4ccc(Cl)cc4)sc3c2=O)C1	logD [1]: 5.1
3.3	8.5		COCCN1CCC[C@@H](Cn2c(-c3ccccc3C)nc3cn(-c4ccc(Cl)cc4)nc3c2=O)C1	logD [1]: 3.7
1.3	8.4		COCCN1CCC[C@H](Cn2c(-c3cccnc3C)nc3cn(-c4cccc(OC)c4)nc3c2=O)C1	
	10		Cc1ccccc1-c1nc2cn(-c3ccc(Cl)cc3)nc2c(=O)n1CC1CCCN(C(C)C)C1 (racemic)	logD [1]: 3.2
2.3	10		Cc1ccccc1-c1nc2cn(-c3ccc(F)cc3)nc2c(=O)n1CC1CCCN(C(C)C)C1 (racemic)	
	10		Cc1ccccc1-c1nc2cn(-c3ccc(C#N)cc3)nc2c(=O)n1CC1CCCN(C(C)C)C1 (racemic)	
2.4	10		COc1ccc(-n2cc3nc(-c4ccccc4C)n(CC4CCCN(C(C)C)C4)c(=O)c3n2)cc1 (racemic)	
3	9.8		Cc1ccccc1-c1nc2cn(-c3cccc(Cl)c3)nc2c(=O)n1CC1CCCN(C(C)C)C1 (racemic)	
2.5	10		COc1cccc(-n2cc3nc(-c4ccccc4C)n(CC4CCCN(C(C)C)C4)c(=O)c3n2)c1 (racemic)	
1.1	8.5		COCCN1CCCC(Cn2c(-c3cccnc3C)nc3cn(-c4ccc(C#N)cc4)nc3c2=O)C1 (racemic)	

Second part, the compound before the results:

Structure (SMILES)	logD at 0.5 h [2]	pKa [4]	microsomal CLint [7]	also measured
Cc1ccccc1-c1nc2ccc(-c3ccc(Cl)cc3)cc2c(=O)n1C[C@H]1CCCN(C(C)C)C1	> 4.3			logD [1]: 5; solubility at 24 h [3]: 45 µM (≈ 21.9 µg/mL)
COc1cccc(-n2cc3nc(-c4cccnc4C)n(C[C@H]4CCCN(C(C)C)C4)c(=O)c3n2)c1	1.3	9.7		solubility at 24 h [3]: > 2700 µM
COCCN1CCC[C@H](Cn2c(-c3cccnc3C)nc3cn(C4CCCCC4)nc3c2=O)C1	1.4			
COc1cccc(-n2cc3nc(-c4cccnc4C)n(C[C@H]4CCCN(C[C@H]5CCCO5)C4)c(=O)c3n2)c1	2		17 µL/min/mg	concentration at 1 h [5]: 1200 nM; concentration at 1 h [6]: 240 nM; solubility at 24 h [3]: > 1500 µM
COc1cccc(-n2cc3nc(C)n(C[C@H]4CCCN(C[C@H]5CCCO5)C4)c(=O)c3n2)c1	1.9		16 µL/min/mg	
COc1cccc(-n2cc3nc(CC(C)C)n(C[C@H]4CCCN(C[C@H]5CCCO5)C4)c(=O)c3n2)c1	3.1		60 µL/min/mg	
Cc1ncccc1-c1nc2cn(-c3ccccc3)nc2c(=O)n1C[C@H]1CCCN(C[C@H]2CCCO2)C1	1.7		15 µL/min/mg	
COc1ccc(-n2cc3nc(-c4cccnc4C)n(C[C@H]4CCCN(C[C@H]5CCCO5)C4)c(=O)c3n2)cc1	1.9		21 µL/min/mg	
CCOc1cccc(-n2cc3nc(-c4cccnc4C)n(C[C@H]4CCCN(C[C@H]5CCCO5)C4)c(=O)c3n2)c1	2.5		30 µL/min/mg	
CCCOc1cccc(-n2cc3nc(-c4cccnc4C)n(C[C@H]4CCCN(C[C@H]5CCCO5)C4)c(=O)c3n2)c1	2.9		67 µL/min/mg	
Cc1ncccc1-c1nc2cn(-c3cccc(OC(C)C)c3)nc2c(=O)n1C[C@H]1CCCN(C[C@H]2CCCO2)C1	2.7		51 µL/min/mg	
Cc1ncccc1-c1nc2cn(-c3cccc(OC(F)F)c3)nc2c(=O)n1C[C@H]1CCCN(C[C@H]2CCCO2)C1	2.2		33 µL/min/mg	
Cc1ccccc1-c1nc2cc(-c3ccc(Cl)cc3)sc2c(=O)n1CC1CCCN(C(C)C)C1 (racemic)				logD [1]: 4.8
Cc1ccccc1-c1nc2cn(-c3cccc(C#N)c3)nc2c(=O)n1CC1CCCN(C(C)C)C1 (racemic)	1.8	9.9		
Cc1ncccc1-c1nc2cn(-c3ccc(C#N)cc3)nc2c(=O)n1CC1CCCN(C2COC2)C1 (racemic)	1.2	6.4		
